Values of other authors as cited in publication PMC9441020 (Journal of medicinal chemistry, 2022).

Assays:
[1] = system: HIV-1 INST
[2] = system: HCV NS5B

Row | Structure (SMILES) | inhibition of HIV-1 INST [1] | inhibition of HCV NS5B [2]
1 | O=C(O)c1nc(-c2cccs2)nc(O)c1O [compound 10, 5-Hydroxy-6-oxo-2-(thiophen-2-yl)-1,6-dihydropyrimidine-4-carboxylic acid] | did not inhibit | effectively inhibiting
2 | O=C(NCc1ccccc1)c1nc(-c2cccs2)nc(O)c1O [compound 11, N-Benzyl-5-hydroxy-6-oxo-2-(thiophen-2-yl)-1,6-dihydropyrimidine-4-carboxamide] | potently inhibited | without significantly inhibiting
